Where two headings read alike, the source gives them in different places. Numbered stars: 1 amine (or outer) side, 2 acyl side, 3 side chain; on linkers, the order of the positions; unused ones are H or OH. Bridge positions count the residues as written; N and C are the ends. Square brackets hold non-standard residues; d marks the D form. Peptide text beside a SMILES is read from it. I, II: the chains in the order shown. * marks the point of attachment. X1 = O=C(COc1cccc2c1C1c3c(OCC(=O)NCCCCCCCCN[*:2])cccc3C2c2cccc(OCC(=O)NCCCCCCCCN[*:3])c21)NCCCCCCCCN[*:1]; Cha = N[C@@H](CC1CCCCC1)C(=O)O; Cbz = O=C(OCc1ccccc1)*; CH2F = FC*
What was measured:
Jurkat cells [1] = test: MTT assay of Jurkat cells treated with 4 or celastrol in the presence of inhibitors; format: cell-based; settings: DIDS 75 or 100 μM, RuRed 75 μM; for Inhibition of 4-induced cell death in Jurkat cells: 4 2.5 μM 1 h, Z-VAD-fmk 15 μM, necrostatin-1 30 μM, 3-MA 10 μM, CCCP 40 μM, 2-APB 50 or 100 μM; for Inhibition of celastrol-induced cell death in Jurkat cells: celastrol 5 μM 24 h, 2-APB 50 μM
Protocol: (a) Jurkat cells: Jurkat cells (2.0 × 10^5 cells/mL) in RPMI 1640 medium with 10% FBS were pretreated with the inhibitors (Z-VAD-fmk (final concentration = 15 μM), necrostatin-1 (final concentration = 30 μM), 3-MA (final concentration = 10 μM), and DIDS (75 or 100 μM)) for 3 h or pretreated with other inhibitors (CCCP (40 μM), FCCP (40 μM), 2-APB (50 or 100 μM) and RuRed (75 μM)) for 1 h under 5% CO2 at 37 °C. After incubation, 4 (final concentration = 2.5 μM) was added to the cell suspension, which was then incubated for 1 h at 37 °C. To test the effect of celastrol, the cells were pretreated with the aforementioned inhibitors and then incubated with celastrol (5 μM) for 24 h. MTT reagent (5 mg/mL) in PBS (10 μL) was added to the cells. After incubation at 37 °C for 4 h, a formazan lysis solution (10% sodium dodecyl sulfate (SDS) in 0.01 N HCl) (100 μL) was added, and the resultant solution was incubated overnight under the same conditions, followed by measurement of the absorbance at 570 nm using a microplate reader (ARVO, PerkinElmer).

A549 cells [2] = test: MTT assay of A549 cells treated with 4 or celastrol in the presence of inhibitors; format: cell-based, human; settings: 4 10 μM 1 h; Z-VAD-fmk 100 μM, necrostatin-1 100 μM, 3-MA 1 mM, CCCP 250 μM, DIDS 250 μM
Protocol: (c) A549 cells: A549 cells (2.0 × 10^5 cells/mL) in DMEM medium with 10% FBS were pretreated with the inhibitors (3-MA (1 mM), and DIDS (250 μM)) for 3 h or pretreated with other inhibitors (Z-VAD-fmk (100 μM), necrostatin-1 (100 μM), CCCP (250 μM), and FCCP (10 μM)) for 1 h under 5% CO2 at 37 °C. After incubation, 4 (final concentration = 10 μM) was added to the cell suspension, which was then incubated for 1 h at 37 °C. Subsequent procedures were the same as those used for the Jurkat cells.

HeLa-S3 cells [3] = test: MTT assay of HeLa-S3 cells treated with 4 or celastrol in the presence of inhibitors; format: cell-based, human; settings: 4 5 μM 1 h; Z-VAD-fmk 100 μM, necrostatin-1 100 μM, 3-MA 5 mM, CCCP 160 μM, DIDS 75 or 100 μM
Protocol: (b) HeLa-S3 cells: HeLa-S3 cells (2.0 × 10^5 cells/mL) in MEM medium with 10% FBS were pretreated with the inhibitors (3-MA (5 mM), and DIDS (75 or 100 μM)) for 3 h or pretreated with other inhibitors (Z-VAD-fmk (100 μM), necrostatin-1 (100 μM), CCCP (160 μM), and FCCP (80 μM)) for 1 h under 5% CO2 at 37 °C. After the incubation, 4 (final concentration = 5 μM) was added to the cell suspension, which was then incubated for 1 h at 37 °C. Subsequent procedures were the same as those used for the Jurkat cells.

Jurkat cells [4] = test: cells
Protocol: (§1) HeLa S3 cells (human cervical carcinoma) were cultured in Minimum essential medium (MEM) containing 10% FBS, penicillin, and streptomycin. A549 cells (human lung carcinoma) and IMR90 cells (human fetal lung fibroblast) were cultured in Dulbecco’s modified Eagle’s medium (DMEM) with 10% FBS, penicillin, and streptomycin. All cells were cultured at 37 °C under a humidified atmosphere containing 5% CO2.
(§2) Jurkat, HeLa-S3, A549 cells (2.0 × 10^5 cells/mL) and IMR90 cells (1.0 × 10^5 cells/mL) were incubated in the presence of 3–7 for 1 h, and etoposide, cisplatin and celastrol for 24 h (50 μL) in cell culture medium under CO2 at 37 °C in 96-well plates (BD Falcon). MTT reagent (5 mg/mL) in PBS (10 μL) was then added to the cells. After incubation at 37 °C for 4 h, a formazan lysis solution (10% sodium dodecyl sulfate (SDS) in 0.01 N HCl) (100 μL) was added and the resultant solution was incubated overnight under the same conditions, which was followed by measurement of the absorbance at 570 nm using a microplate reader (ARVO, PerkinElmer).

IMR90 cells = test: cells
Protocol: as §1, §2

A549 cells [5] = test: cells
Protocol: as §1, §2

HeLa-S3 cells [6] = test: cells
Protocol: as §1, §2

[7] = test system: labile Fe^2+ in mitochondria of Jurkat cells; test: Mito-FerroGreen fluorescence microscopy in Jurkat cells; format: cell-based; settings: 4 2.5 μM 1 h; celastrol 5 μM, etoposide 5 μM, cisplatin 100 μM 24 h
Protocol: (§3) Jurkat cells (2.0 × 10^5 cells) were treated with 4 (2.5 μM), etoposide (5 μM), cisplatin (100 μM) and celastrol (5 μM) and stained with Mito-FerroGreen (a probe for labile Fe^2+ in mitochondria) (5 μM) and zinquin (a probe for intracellular Zn^2+) (25 μM). The cell images were observed via fluorescence microscopy.

[8] = test system: intracellular Zn^2+ in Jurkat cells; test: Zinquin fluorescence microscopy in Jurkat cells; format: cell-based; settings: 4 2.5 μM 1 h; celastrol 5 μM, etoposide 5 μM, cisplatin 100 μM 24 h
Protocol: as §3

| EC50 (Jurkat cells [4]; 1 h) | EC50 (IMR90 cells; 1 h) | EC50 (HeLa-S3 cells [6]; 1 h) | Compound | Inhibition of 4-induced cell death in Jurkat cells (Jurkat cells [1]) | Inhibition of 4-induced cell death in A549 cells (A549 cells [2]) | Inhibition of 4-induced cell death in HeLa-S3 cells (HeLa-S3 cells [3]) | other results |
| --- | --- | --- | --- | --- | --- | --- | --- |
| – | – | – | NCCOB(c1ccccc1)c1ccccc1 [2-APB] | rather weak | – | – | Inhibition of celastrol-induced cell death in Jurkat cells (Jurkat cells [1]): did not significantly stop cell death |
| – | – | – | Cn1cnc(N)c2ncnc1-2 [3-MA, 3-methyladenine] | negligibly inhibited | negligibly inhibited | negligibly inhibited | – |
| – | – | – | O=S(=O)(O)c1cc(N=C=S)ccc1C=Cc1ccc(N=C=S)cc1S(=O)(=O)O [DIDS, 4,4′-diisothiocyano-2,2′-stilbenedisulfonic acid] | considerably inhibits | considerably inhibits | considerably inhibits | Inhibition of celastrol-induced cell death in Jurkat cells (Jurkat cells [1]): did not significantly stop cell death |
| > 25 µM | > 25 µM | > 25 µM | NCCCC[C@H](NC(=O)[C@H](CCCCN)NC(=O)[C@@H](N)CCCCN)C(=O)N[C@@H](CC1CCCCC1)C(=O)NCC(=O)O [KKKChaG, H2N-KKKChaG] (H-KKK[Cha]G-OH; C-terminus assumed) | – | – | – | EC50 (A549 cells [5]; 1 h): > 25 µM |
| – | – | – | N.N.N.N.N.N.N.N.N.N.N.N.N.N.[Cl-].[Cl-].[Cl-].[Cl-].[Cl-].[Cl-].[O-2].[O-2].[Ru+3].[Ru+3].[Ru+4] [RuRed, Ruthenium Red] | rather weak | – | – | Inhibition of celastrol-induced cell death in Jurkat cells (Jurkat cells [1]): did not significantly stop cell death |
| – | – | – | COC(=O)CC(NC(=O)C(C)NC(=O)C(NC(=O)OCc1ccccc1)C(C)C)C(=O)CF (stereo not drawn) [Z-VAD-fmk, benzyloxycarbonyl-VAD(OMe)-fluoromethylketone] (Cbz-Val-Ala-Asp(OMe)-CH2F; configuration not given here) | negligibly inhibited | negligibly inhibited | negligibly inhibited | – |
| 2.2 ± 0.5 µM | > 25 µM | 5.3 ± 0.5 µM | NCCCC[C@H](NC(=O)[C@H](CCCCN)NC(=O)[C@@H](N)CCCCN)C(=O)NCC(=O)NCC(=O)NCCCCCCCCNC(=O)COc1cccc2c1C1c3c(OCC(=O)NCCCCCCCCNC(=O)CNC(=O)CNC(=O)[C@H](CCCCN)NC(=O)[C@H](CCCCN)NC(=O)[C@@H](N)CCCCN)cccc3C2c2cccc(OCC(=O)NCCCCCCCCNC(=O)CNC(=O)CNC(=O)[C@H](CCCCN)NC(=O)[C@H](CCCCN)NC(=O)[C@@H](N)CCCCN)c21 [compound 3] | – | – | – | EC50 (A549 cells [5]; 1 h): 8.6 ± 1.8 µM |
| 1.2 ± 0.1 µM | > 25 µM | 3.3 ± 0.2 µM | NCCCC[C@H](NC(=O)[C@H](CC1CCCCC1)NC(=O)[C@H](CCCCN)NC(=O)[C@H](CC1CCCCC1)NC(=O)[C@@H](N)CCCCN)C(=O)NCC(=O)NCCCCCCCCNC(=O)COc1cccc2c1C1c3c(OCC(=O)NCCCCCCCCNC(=O)CNC(=O)[C@H](CCCCN)NC(=O)[C@H](CC4CCCCC4)NC(=O)[C@H](CCCCN)NC(=O)[C@H](CC4CCCCC4)NC(=O)[C@@H](N)CCCCN)cccc3C2c2cccc(OCC(=O)NCCCCCCCCNC(=O)CNC(=O)[C@H](CCCCN)NC(=O)[C@H](CC3CCCCC3)NC(=O)[C@H](CCCCN)NC(=O)[C@H](CC3CCCCC3)NC(=O)[C@@H](N)CCCCN)c21 [compound 6] (I: H-K[Cha]K[Cha]KG / II: H-K[Cha]K[Cha]KG / III: H-K[Cha]K[Cha]KG; linker I:C-II:C-III:C via X1) | – | – | – | – |
| 2.1 ± 0.1 µM | > 12.5 µM | 2.7 ± 0.5 µM | N=C(N)NCCC[C@H](NC(=O)[C@H](CC1CCCCC1)NC(=O)[C@H](CCCNC(=N)N)NC(=O)[C@H](CC1CCCCC1)NC(=O)[C@@H](N)CCCNC(=N)N)C(=O)NCC(=O)NCCCCCCCCNC(=O)COc1cccc2c1C1c3c(OCC(=O)NCCCCCCCCNC(=O)CNC(=O)[C@H](CCCNC(=N)N)NC(=O)[C@H](CC4CCCCC4)NC(=O)[C@H](CCCNC(=N)N)NC(=O)[C@H](CC4CCCCC4)NC(=O)[C@@H](N)CCCNC(=N)N)cccc3C2c2cccc(OCC(=O)NCCCCCCCCNC(=O)CNC(=O)[C@H](CCCNC(=N)N)NC(=O)[C@H](CC3CCCCC3)NC(=O)[C@H](CCCNC(=N)N)NC(=O)[C@H](CC3CCCCC3)NC(=O)[C@@H](N)CCCNC(=N)N)c21 [compound 7] (I: H-R[Cha]R[Cha]RG / II: H-R[Cha]R[Cha]RG / III: H-R[Cha]R[Cha]RG; linker I:C-II:C-III:C via X1) | – | – | – | EC50 (A549 cells [5]; 1 h): 1.5 ± 0.1 µM |
| – | – | – | COc1cc([C@@H]2c3cc4c(cc3[C@@H](O[C@@H]3O[C@@H]5CO[C@@H](C)O[C@H]5[C@H](O)[C@H]3O)[C@H]3COC(=O)[C@H]23)OCO4)cc(OC)c1O [etoposide] | – | – | – | Emission from Mito-FerroGreen (free Fe2+ in mitochondria) in Jurkat cells [7]: increases in both free-Fe^2+ and free-Zn^2+; Emission from zinquin (intracellular free Zn2+) in Jurkat cells [8]: increases in both free-Fe^2+ and free-Zn^2+; EC50 (Jurkat cells [4]; Homo sapiens, Jurkat, 24 h, read-out: EC50 against Jurkat cells): 3.1 ± 0.1 µM; EC50 (IMR90 cells; Homo sapiens, IMR-90, 24 h, read-out: EC50 against IMR90 cells): > 25 µM; EC50 (A549 cells [5]; Homo sapiens, A549, read-out: EC50 against A549 cells): > 100 µM; EC50 (HeLa-S3 cells [6]; Homo sapiens, HeLa S3, 24 h, read-out: EC50 against HeLa-S3 cells): > 100 µM |
| – | – | – | CN1C(=O)C(Cc2c[nH]c3ccccc23)NC1=S (centres unmarked) [necrostatin-1] | negligibly inhibited | negligibly inhibited | negligibly inhibited | – |

From PMC11375786, “Induction of Paraptotic Cell Death in Cancer Cells by Triptycene–Peptide Hybrids and the Revised Mechanism of Paraptosis II” (Biochemistry, 2024)
